{
  "source": "patent US11850253B2",
  "about": "“Two component compositions” (Asamedic AS, priority 2017, dated 2023)",
  "assay": "Dissolution of ASA together with sodium carbonate (one component) in 15 ml pure water in two-component device",
  "format": "physicochemical",
  "procedure": "In the following example ASA and the disodium salt of carbonic acid (Na2CO3) are dissolved at the same time in 15 ml pure water.\n300 mg ASA and 258-263 mg sodium carbonate (Na2CO3) were placed together in the powder compartment of the test device used in example 1, and 15 ml of pure water was filled into the container (bottle) of said device. After releasing the ASA and sodium carbonate into the water, the solution was shaken until all ASA was dissolved.",
  "data": [
    {"compound": "CC(=O)Oc1ccccc1C(=O)O", "note": "[ASA, acetylsalicylic acid]", "values": [
      {"measurement": "pH of the solutions after dissolution of ASA and the carbonate salt", "setting": "300 mg ASA and 258-263 mg Na2CO3, 15 ml pure water", "result": "9.41-9.43"},
      {"measurement": "Time before ASA was dissolved", "setting": "300 mg ASA and 258-263 mg Na2CO3 together as powder, 15 ml pure water", "result": "approx. 120 sec."}
    ]}
  ]
}
